Here are results for five compounds from US20130029981A1, “COMPOUNDS, COMPOSITIONS, AND METHODS FOR CONTROLLING BIOFILMS” (Katholieke Universiteit Leuven, priority 2009, published 2013).

Assay [1] relates to Salmonella Typhimurium ATCC 14028. Nature of the assay: Antibacterial activity: growth inhibition, OD600 after 24 h (GIC50). Format: cell-based. To be noted: 25° C. How it is done: Evaluation of antibacterial-inhibitory activity of some substituted 2-amino-1H-imidazoles of the invention was carried out by diluting an overnight culture of Salmonella Typhimurium ATCC 14028 into a liquid medium. 200 μl of the diluted overnight culture was added to each well of a microtiter plate together with different concentrations of the test compound (1/2 dilution series of the compound). After an incubation of 24 hours the optical density at 600 nm of each well was determined with a microtiter plate reader.
Starting from a 40 mM stock solution of each compound in DMSO, two-fold serial dilutions in 100 μl liquid broth per well were prepared in dublicate in sterile transparant microtiter plates. The broth used was TSB 1/20 for measurements at 25° C. and CFA (in case of Salmonella Typhimurium) and LBNS (in case of Pseudomonas aeruginosa) for measurements at 37° C. Subsequently an overnight culture of the bacteria (S. Typhimurium ATCC14028 or P. aeruginosa PA14) was diluted 1/200 into the corresponding liquid broth and 100 μl was added to each well of the microtiterplate resulting in a total amout of 200 μl medium per well. After an incubation of 24 hours the optical density at 600 nm of each well was determined with a microtiter plate reader (VERSAmax, Molecular Devices).
Evaluation of antibacterial-inhibitory activity of some substituted imidazo[1,2-a]pyrimidinium bromide salts of the invention was carried out by diluting an overnight culture of Salmonella Typhimurium ATCC14028 or Pseudomonas aeruginosa PA141/200 into liquid medium. 200 μl of the diluted overnight culture was added to each well of a microtiterplate together with different concentrations of the test compound (1/2 dilution series of the compound). After an incubation of 24 hours the optical density at 600 nm of each well was determined with a microtiter plate reader.

For assay [2], the system named is Pseudomonas aeruginosa PA14. Nature of the assay: Bioscreen assay: influence on planktonic growth curve. The assay is classed as cell-based. The note with it: planktonic growth at the IC50 for biofilm inhibition, 25° C. Details: key: x: no influence on the planktonic growth at the IC50 for biofilm inhibition; ∘: planktonic growth is retarded at the IC50 for biofilm inhibition. An excerpt: Some of the tested compounds show a concentration range in which biofilm formation is inhibited but no effect on planktonic growth is observed. These compounds are particularly interesting for prevention of biofilm formation since the development of resistance against these compounds is less likely. Table 8 indicates whether the different compounds have an effect on the planktonic growth of the bacteria at the IC50 for biofilm inhibition. To construct Table 8, the effect of the tested compounds on the growth curve of the bacteria was determined at a concentration equal to the IC50 for biofilm inhibition, by using the Bioscreen system available from Oy Growth Curves Ab Ltd). The Bioscreen device from Oy Growth Curves Ab Ltd was used for measuring the influence of the chemical compounds on the planktonic growth of Salmonella Typhimurium and Pseudomonas aeruginosa. The Bioscreen is a computer controlled incubator/reader/shaker that uses 10×10 well microtiter plates and measures light absorbance of each well at a specified wave length in function of time. An overnight culture of S. […] The broth used was TSB 1/20 for the experiments at 16° C. and 25° C. For experiments at 37° C. CFA medium was used for S. […] As a control 3 μl of the appropriate solvent (DMSO or EtOH) was also added to the plate in 3- or 4-fold. The microtiter plate was incubated in the Bioscreen device at 16° C., 25° C. or 37° C. for at least 36 hours, with continious medium shaking. The absorbance of each well was measured at 600 nm each 15 minutes. Excel was used to generate the growth curves for treated the treated wells and the untreated control wells. Some of the compounds show a concentration range in which biofilm formation is inhibited but no effect on the planktonic growth is observed. […] To construct this table the effect of the compounds on the growth curve of the bacteria was determined at a concentration equal to the IC50 for biofilm inhibtion, by using the Bioscreen system from Oy Growth Curves Ab Ltd.

Structures are written as SMILES. A value given as a limit tells only on which side of the number the result lay.

Usually IC50 stands for the concentration that gives 50% inhibition. Turning to `CCCCCCN1c2nccc[n+]2CC1(O)c1ccc([N+](=O)[O-])cc1.[Br-]` (stereo not drawn) [Compound 34], in assay [1], the IC50 was in the range of 100 to 200 µM.
In turn, `OC1(c2ccc(Cl)cc2)C[n+]2cccnc2N1C1CCCCC1.[Br-]` (stereo not drawn) [Compound 64] gave an IC50 in assay [1] of 50 to 100 µM. For the same compound, in assay [2], the Influence on growth result is listed as “x”.
For `O=[N+]([O-])c1ccc(C2(O)C[n+]3cccnc3N2C2CCCCCCCCCCC2)cc1.[Br-]` (stereo not drawn) [Compound 69], the IC50 in assay [1] was less than 6 µM.
For the compound `OC1(c2ccc(I)cc2)C[n+]2cccnc2N1Cc1ccccc1.[Br-]` (stereo not drawn) [Compound 73], the IC50 in assay [1] (listed as R1=Benzyl, R3=4-I—Ph, R4=H) was 50 µM; in assay [1] (listed as R1=benzyl, R3=4-I—ph, R4=H) it was 50 to 100 µM. Moreover, the Influence on growth result in assay [2] is “x”.
In turn, `OC1(c2ccc(-c3ccccc3)cc2)C[n+]2cccnc2N1C1CCCC1.[Br-]` (stereo not drawn) [R1=Cyclopentyl, R3=4-biphenylyl, R4=H, 1-cyclopentyl-2-hydroxy-2-(4-biphenylyl)-2,3-dihydro-1H-imidazo[1,2-a]pyrimidin-4-ium bromide] gave an IC50 in assay [1] (Salmonella enterica) of 25 to 50 µM. Also, the Influence on growth entry in assay [2] is on record as “x”.
